In one assay the target is T1, human CD38 (Homo sapiens, UniProt P28907).
T1 sequence (P28907 1-300): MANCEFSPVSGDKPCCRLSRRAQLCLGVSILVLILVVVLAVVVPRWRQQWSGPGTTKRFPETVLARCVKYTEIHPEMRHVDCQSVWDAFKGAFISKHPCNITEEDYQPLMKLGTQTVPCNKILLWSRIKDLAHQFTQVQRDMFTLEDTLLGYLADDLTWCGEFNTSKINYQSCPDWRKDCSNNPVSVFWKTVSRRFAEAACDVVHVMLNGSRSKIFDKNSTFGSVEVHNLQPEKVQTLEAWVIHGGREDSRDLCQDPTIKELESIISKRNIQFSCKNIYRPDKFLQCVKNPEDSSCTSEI
The assay can be described thus: human recombinant CD38 enzyme assay (hydrolysis of NAD+). The class given is biochemical. To be noted: human recombinant CD38, 0.4 nM enzyme, 62.5 μM NAD+; read-out: hCD38 BioChem IC50. The essentials: (§1)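 Inhibitors were titrated against purified CD38 hydrolysing NAD+ for 60 min at ambient temperature. Unconsumed substrate was quantified enzymatically via NADH-coupled resazurin reduction and fluorescence.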

Assay [1] has as its target T2, endogenous CD38 in HL60 cells (Homo sapiens, UniProt P28907).
T2 construct: endogenous in cells; host or cells: HL60 (leukemic cells, treated with all-trans retinoic acid)
T2 sequence (P28907 1-300): T1 sequence (P28907 1-300)
The assay can be described thus: cellular CD38 assay in HL60 cells (cellular NAD levels). The following applies: all-trans retinoic acid, 24 hours, read-out: hCD38 HL60 ATRA NAD Cell Diaphorase IC50. The class given is cell-based. The procedure: The compounds described herein were also assayed for their ability to inhibit the endogenous CD38 in a native cellular environment in the cellular CD38 assay, which measures the ability of the compound to modulate cellular NAD levels. […] The assays were initiated by plating 20 μL of HL60 cells in culture medium, at a density of 20000 cells per well to a 384-well Corning™ Multiwell Plates. Compounds in DMSO were added to the plates in a volume of 120 nL using the Labcyte Echo Liquid Handlers. […] The plates are then incubated for 24 hours. 50 μL of a readout-solution containing 0.2 U/mL Diaphorase enzyme, 40 uM resazurin, 10 uM FMN, 0.8 U/mL Alcohol dehydrogenase, 3% ethanol, 0.4 mg/mL bovine serum albumin, 0.2% Triton X-100 in 100 mM Tris-HCl, 30 mM EDTA, pH 8.4. The plates were read for fluorescence (Excitation/Emission=540 nm/590 nm) using an EnVision plate reader after 60 mins of incubation at ambient temperature. Note that, in Table 5, the “Compound No” corresponds to the compound numbers in Table 1.

A further assay has as its target T3, mouse CD38 (Mus musculus, UniProt P56528).
T3 sequence (P56528 1-304): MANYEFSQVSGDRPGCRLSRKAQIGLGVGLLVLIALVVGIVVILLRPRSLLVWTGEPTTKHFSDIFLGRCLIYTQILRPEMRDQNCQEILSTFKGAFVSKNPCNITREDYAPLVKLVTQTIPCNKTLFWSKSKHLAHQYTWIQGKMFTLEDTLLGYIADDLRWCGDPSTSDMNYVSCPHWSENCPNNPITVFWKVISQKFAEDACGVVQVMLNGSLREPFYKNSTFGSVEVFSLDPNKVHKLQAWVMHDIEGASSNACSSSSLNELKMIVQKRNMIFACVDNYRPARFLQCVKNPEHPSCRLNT
The assay can be described thus: mouse recombinant CD38 enzyme assay (hydrolysis of NAD+). The format is biochemical. To be noted: read-out: mCD38 BioChem IC50. The method in brief: as §1

Structures are written as SMILES.

The results in this text go back to US20230116972A1, “CD38 MODULATORS AND METHODS OF USE THEREOF” (Cytokinetics, Inc., priority 2021, published 2023).

`Cn1cncc1-c1ccnc(C(=O)N[C@H]2C[C@H](c3ccnc(C(F)(F)F)c3)C2)n1` [Compound 270, 4-(1-methyl-1H-imidazol-5-yl)-N-((1r,3r)-3-(2-(trifluoromethyl)pyridin-4-yl)cyclobutyl)pyrimidine-2-carboxamide]: the IC50 is 13.7 nM on human CD38, 1130 nM in assay [1] and 43.9 nM on mouse CD38.

Take `O=C(N[C@H]1CC[C@H](C(F)F)CC1)c1cc(C2CC2)nc(-n2ccnc2)n1` [Compound 161, 6-cyclopropyl-N-((1r,4r)-4-(difluoromethyl)cyclohexyl)-2-(1H-imidazol-1-yl)pyrimidine-4-carboxamide]: the half-maximal inhibitory concentration (IC50) was 26 nM on human CD38, 2450 nM in assay [1] and 4 nM at mouse CD38.

As to `O=C(N[C@H]1C[C@H](c2ccc(C(F)(F)F)nc2)C1)c1nccc(-n2ccnc2)n1` [Compound 269, 4-(1H-imidazol-1-yl)-N-((1r,3r)-3-(6-(trifluoromethyl)pyridin-3-yl)cyclobutyl)pyrimidine-2-carboxamide], the IC50 at human CD38 amounted to 199 nM; in assay [1], 3950 nM; at mouse CD38, 175 nM.

Take `COCCO[C@H]1CC[C@H](NC(=O)c2cc(C(F)(F)F)nc(-n3ccnc3)n2)CC1` [Compound 157, 2-(1H-imidazol-1-yl)-N-((1r,4r)-4-(2-methoxyethoxy)cyclohexyl)-6-(trifluoromethyl)pyrimidine-4-carboxamide]: the IC50 on human CD38 worked out at 121 nM; in assay [1], 7230 nM; at mouse CD38, 48 nM.

`O=C(Nc1ccc(C(F)F)nc1)c1cc(C(F)(F)F)nc(-c2cncs2)n1` [Compound 116, N-(6-(difluoromethyl)pyridin-3-yl)-2-(thiazol-5-yl)-6-(trifluoromethyl)pyrimidine-4-carboxamide]: the IC50 on human CD38 was 507 nM; in assay [1] it was 8160 nM; at mouse CD38, 185 nM.

Regarding `COc1cc(C(=O)N[C@H]2CC[C@H](OC)CC2)nc(-c2cncn2C)n1` [Compound 128, 6-methoxy-N-((1r,4r)-4-methoxycyclohexyl)-2-(1-methyl-1H-imidazol-5-yl)pyrimidine-4-carboxamide], the IC50 on human CD38 is 9 nM; in assay [1], 928 nM; on mouse CD38 it was 1 nM.

`Cc1cc(-c2cncn2C)nc(C(=O)Nc2ccc(C(F)(F)F)nc2)n1` [Compound 235, 4-methyl-6-(1-methyl-1H-imidazol-5-yl)-N-(6-(trifluoromethyl)pyridin-3-yl)pyrimidine-2-carboxamide]: the results for the half-maximal inhibitory concentration (IC50) (on human CD38; in assay [1]; on mouse CD38) were 3.8 nM, 376 nM and 1.6 nM, respectively.

`O=C(NC12CC(O)(C1)C2)c1cccc(-n2ccnc2)n1` [Compound 15, N-(3-hydroxybicyclo[1.1.1]pentan-1-yl)-6-(1H-imidazol-1-yl)picolinamide]: the IC50 came out at 1140 nM at human CD38, 9960 nM in assay [1] and 748 nM at mouse CD38.

As to `CC(C)c1cc(C(=O)Nc2ccc(C(F)F)nc2)nc(-n2ccnc2)n1` [Compound 169, N-(6-(difluoromethyl)pyridin-3-yl)-2-(1H-imidazol-1-yl)-6-isopropylpyrimidine-4-carboxamide], the values for the IC50 (on human CD38; in assay [1]; on mouse CD38) were 22 nM, 2250 nM and 15 nM, respectively.

For the compound `O=C(Nc1ccc(C(F)(F)F)nc1)c1ccc(F)c(-n2ccnc2)n1` [Compound 53, 5-fluoro-6-(1H-imidazol-1-yl)-N-(6-(trifluoromethyl)pyridin-3-yl)picolinamide], the IC50 is 10 nM at human CD38, 675 nM in assay [1] and 10 nM at mouse CD38.

On to `Cc1cc(C(=O)Nc2ccc(C(F)F)nc2)nc(-c2cncs2)c1` [Compound 132, N-(6-(difluoromethyl)pyridin-3-yl)-4-methyl-6-(thiazol-5-yl)picolinamide], for which the results for the IC50 (on human CD38; in assay [1]; on mouse CD38) were 115 nM, 5560 nM and 55 nM, respectively.

Take `Cn1cncc1-c1cncc(C(=O)Nc2ccc(C(F)(F)F)nc2)n1` [Compound 90, 6-(1-methyl-1H-imidazol-5-yl)-N-(6-(trifluoromethyl)pyridin-3-yl)pyrazine-2-carboxamide]: the IC50 on human CD38 came to 4 nM; in assay [1], 369 nM; at mouse CD38 it was 13 nM.

As for `Cn1cncc1-c1nc(C(=O)N[C@H]2CCc3cc(F)ccc32)cc(C2CCOCC2)n1` [Compound 229, (S)-N-(5-fluoro-2,3-dihydro-1H-inden-1-yl)-2-(1-methyl-1H-imidazol-5-yl)-6-(tetrahydro-2H-pyran-4-yl)pyrimidine-4-carboxamide], the IC50 was determined as 11.2 nM at human CD38, 4000 nM in assay [1] and 2.5 nM at mouse CD38.

Consider `O=C(Nc1ccc(C(F)(F)F)nc1)c1cc(C2CCOCC2)nc(-n2ccnc2)n1` [Compound 196, 2-(1H-imidazol-1-yl)-6-(tetrahydro-2H-pyran-4-yl)-N-(6-(trifluoromethyl)pyridin-3-yl)pyrimidine-4-carboxamide], for which the IC50 turned out to be 25.4 nM at human CD38, 3190 nM in assay [1] and 19.3 nM at mouse CD38.

In the case of `COCCO[C@H]1CC[C@H](NC(=O)c2cc(C(F)(F)F)cc(-n3ccnc3)n2)CC1` [Compound 61, 6-(1H-imidazol-1-yl)-N-(4-(2-methoxyethoxy)cyclohexyl)-4-(trifluoromethyl)picolinamide], the IC50 at human CD38 was 73 nM; in assay [1], 7850 nM; at mouse CD38, 13 nM.

For `Cn1cncc1-c1cnc(N)c(C(=O)Nc2ccc(C(F)(F)F)nc2)n1` [Compound 314, 3-amino-6-(1-methyl-1H-imidazol-5-yl)-N-(6-(trifluoromethyl)pyridin-3-yl)pyrazine-2-carboxamide], the figures for the IC50 (at human CD38; in assay [1]; on mouse CD38) were 8.9 nM, 1370 nM and 7.5 nM, respectively.

As for `Cn1cncc1-c1ccnc(C(=O)N[C@H]2CC[C@H](OC(F)F)CC2)n1` [Compound 275, N-((1r,4r)-4-(difluoromethoxy)cyclohexyl)-4-(1-methyl-1H-imidazol-5-yl)pyrimidine-2-carboxamide], the IC50 worked out at 31.5 nM on human CD38, 2210 nM in assay [1] and 15.4 nM at mouse CD38.

On to `CC(C)c1cc(C(=O)N[C@H]2CC[C@H](C(F)F)CC2)nc(-c2cncn2C)n1` [Compound 172, N-((1r,4r)-4-(difluoromethyl)cyclohexyl)-6-isopropyl-2-(1-methyl-1H-imidazol-5-yl)pyrimidine-4-carboxamide], for which the IC50 at human CD38 came to 21 nM; in assay [1], 2950 nM; at mouse CD38, 5 nM.

As for `COC(=O)[C@H]1CC[C@H](NC(=O)c2ccnc(-c3cncn3C)n2)CC1` [Compound 107, methyl (1r,4r)-4-(2-(1-methyl-1H-imidazol-5-yl)pyrimidine-4-carboxamido)cyclohexane-1-carboxylate], the IC50 on human CD38 was found to be 9 nM; in assay [1], 1290 nM; at mouse CD38, 2 nM.

On to `Cn1cncc1-c1ccnc(C(=O)N[C@H]2C[C@H](c3ccc(F)cc3)C2)n1` [Compound 242, N-((1r,3r)-3-(4-fluorophenyl)cyclobutyl)-4-(1-methyl-1H-imidazol-5-yl)pyrimidine-2-carboxamide], for which the results for the IC50 (at human CD38; in assay [1]; at mouse CD38) were 28.8 nM, 2370 nM and 21.3 nM, respectively.
